In patent US11578087B2, “Oxaborole esters and uses thereof” (priority 2016, dated 2023):

What follows are compounds tested on IL3000 T. congolense (drug sensitive) strain (assay: In vitro Alamar Blue 72 h drug sensitivity assay for T. congolense). Details: Trypanosoma congolense, 72 h, bloodstream form, 69 h + 3 h Resazurin, 34° C., read-out: IC50: I Org. Growth T. congolense 3 d.
Type: cell-based, Trypanosoma congolense
Experimental: Example 252. In Vitro Alamar Blue 72 h Drug Sensitivity Assay for T. congolense
Compounds were tested in vitro for chemotherapeutic potency against the IL3000 T. congolense (drug sensitive) strain, using the Alamar Blue assay with several modifications. Test compounds were prepared as 10 mg/mL DMSO stocks for each assay run. Compounds were assayed in at least three separate, independent test runs and an 11-point dilution curve was used to determine the IC50 values. Bloodstream form trypanosomes were supported in HMI media containing 20% bovine serum and were incubated with test compounds for 69 h at 34° C. in a humidified atmosphere containing 5% CO2. Thereafter, 10 μL of Resazurin dye (12.5 mg in 100 mL of phosphate buffered saline, Sigma-Aldrich, Buchs, Switzerland) were added for an additional 3 h. Plates were then read using a fluorescent plate reader (Spectramax, Gemini XS, Bucher Biotec, Basel, Switzerland) using an excitation wavelength of 536 nm and an emission wavelength of 588 nm. Data points were averaged to generate sigmoidal dose-response curves and IC50 values were determined using Softmax Pro 5.2 software.

| Structure (SMILES) | IC50 |
| --- | --- |
| O=C(CNC(=O)c1ccc2c(c1)B(O)OC2)OCc1ccccc1 [Example 6-004, Benzyl (1-hydroxy-1,3-dihydrobenzo[c][1,2]oxaborole-6-carbonyl)glycinate] | 10 to 5000 nM |
| O=C(OCc1ccccc1)[C@@H]1CCCN1C(=O)c1ccc2c(c1)B(O)OC2 [Example 6-012, Benzyl (1-hydroxy-1,3-dihydrobenzo[c][1,2]oxaborole-6-carbonyl)-L-prolinate] | 10 to 5000 nM |
| CC(C)[C@H](NC(=O)c1ccc2c(c1)B(O)OC2(C)C)C(=O)OCc1ccc(F)cc1F [Example 6-034, 2,4-Difluorobenzyl (1-hydroxy-3,3-dimethyl-1,3-dihydrobenzo[c][1,2]oxaborole-6-carbonyl)-L-valinate] | 10 to 5000 nM |
| Cc1cccc(C)c1COC(=O)[C@H](C)NC(=O)c1ccc2c(c1)B(O)OC2 [Example 6-014, 2,6-Dimethylbenzyl (1-hydroxy-1,3-dihydrobenzo[c][1,2]oxaborole-6-carbonyl)-L-alaninate] | 10 to 5000 nM |
| CC(C)(NC(=O)c1ccc2c(c1)B(O)OC2)C(=O)OCc1ccccc1 [Example 6-013, Benzyl 2-(1-hydroxy-1,3-dihydrobenzo[c][1,2]oxaborole-6-carboxamido)-2-methylpropanoate] | 10 to 5000 nM |
| Cc1c(C(=O)N[C@H](C(=O)OC2COCCOC2)C(C)C)ccc2c1B(O)OC2 [Example 6-162, 1,4-dioxepan-6-yl (1-hydroxy-7-methyl-1,3-dihydrobenzo[c][1,2]oxaborole-6-carbonyl)-L-valinate] | 0.51 to 9.99 nM |
| CC(C)[C@H](NC(=O)c1ccc2c(c1F)B(O)OC2)C(=O)OCc1ccc(F)cc1F [Example 6-037, 2,4-Difluorobenzyl (7-fluoro-1-hydroxy-1,3-dihydrobenzo[c][1,2]oxaborole-6-carbonyl)-L-valinate] | 10 to 5000 nM |
| Cc1c(C(=O)N[C@H](C(=O)OCc2ccc(OCCN3CCCC3)cc2)C(C)C)ccc2c1B(O)OC2 [Example 6-163, 4-(2-(Pyrrolidin-1-yl)ethoxy)benzyl (1-hydroxy-7-methyl-1,3-dihydrobenzo[c][1,2]oxaborole-6-carbonyl)-L-valinate] | < 0.5 nM |
| C[C@@H](NC(=O)c1ccc2c(c1)B(O)OC2)C(=O)OCc1ccccc1 [Example 6-175, Benzyl (1-hydroxy-1,3-dihydrobenzo[c][1,2]oxaborole-6-carbonyl)-D-alaninate] | 10 to 5000 nM |
| COC(=O)[C@@H](NC(=O)c1ccc2c(c1)B(O)OC2)C(C)C [Example 6-179, Methyl (1-hydroxy-1,3-dihydrobenzo[c][1,2]oxaborole-6-carbonyl)-L-valinate] | 10 to 5000 nM |
| COC(=O)[C@H](CC1CC1)NC(=O)c1ccc2c(c1)B(O)OC2 [Example 6-184, Methyl (S)-3-cyclopropyl-2-(1-hydroxy-1,3-dihydrobenzo[c][1,2]oxaborole-6-carboxamido)propanoate] | 10 to 5000 nM |
| NC(=O)CC[C@H](NC(=O)c1ccc2c(c1)B(O)OC2)C(=O)OCc1ccccc1 [Example 6-011, Benzyl (1-hydroxy-1,3-dihydrobenzo[c][1,2]oxaborole-6-carbonyl)-L-glutaminate] | 10 to 5000 nM |
| C[C@H](NC(=O)c1ccc2c(c1)B(O)OC2)C(=O)OC(C)(C)c1ccccc1 [Example 6-015, 2-Phenylpropan-2-yl (1-hydroxy-1,3-dihydrobenzo[c][1,2]oxaborole-6-carbonyl)-L-alaninate] | 10 to 5000 nM |
| COC(=O)[C@H](Cc1c[nH]c2ccccc12)NC(=O)c1ccc2c(c1)B(O)OC2 [Example 6-183, Methyl (1-hydroxy-1,3-dihydrobenzo[c][1,2]oxaborole-6-carbonyl)-L-tryptophanate] | 10 to 5000 nM |
| Cc1cccc(C)c1OC(=O)[C@H](C)NC(=O)c1ccc2c(c1)B(O)OC2 [Example 6-001, 2,6-Dimethylphenyl (1-hydroxy-1,3-dihydrobenzo[c][1,2]oxaborole-6-carbonyl)-L-alaninate] | 10 to 5000 nM |
| COC(=O)[C@@H](CCCc1ccccc1)NC(=O)c1ccc2c(c1)B(O)OC2 [Example 6-029, Methyl (R)-2-(1-hydroxy-1,3-dihydrobenzo[c][1,2]oxaborole-6-carboxamido)-5-phenylpentanoate] | 10 to 5000 nM |
| COC(=O)[C@H](CCCc1ccccc1)NC(=O)c1ccc2c(c1)B(O)OC2 [Example 6-028, Methyl (S)-2-(1-hydroxy-1,3-dihydrobenzo[c][1,2]oxaborole-6-carboxamido)-5-phenylpentanoate] | 10 to 5000 nM |

Same assay, conditions: bloodstream form, 69 h + 3 h Resazurin, 34° C., read-out: IC50: I Org. Growth T. congolense 3 d

| Structure (SMILES) | IC50 |
| --- | --- |
| COC(=O)[C@H](Cc1ccccc1)NC(=O)c1ccc2c(c1)B(O)OC2 [Example 6-181, Methyl (1-hydroxy-1,3-dihydrobenzo[c][1,2]oxaborole-6-carbonyl)-L-phenylalaninate] | 10 to 5000 nM |

These compounds were tested on T. cruzi amastigote (Td Tomato-modified) in Vero cells (assay: In vitro IC50 measurement of T. cruzi amastigote killing using Td Tomato-modified T. cruzi). Details: Trypanosoma cruzi, 72 h, fluorescence, read-out: IC50: I Org. amastigote Growth T. cruzi 3 d.
Type: cell-based
Experimental: Example 254. In Vitro IC50 Measurement of T. cruzi Amastigote Killing Using Td Tomato-Modified T. cruzi
The T. cruzi parasites used in this assay were genetically modified to express Td Tomato fluorescent protein. Vero cells (African green monkey kidney epithelial cells) were harvested from continuous cultures using trypsin and added to the inner 60 wells of 96-well Greiner Bio One plates (plate catalog #655090) at 200 ul/well of […]. Cells were allowed to adhere for 1 h before infection with T. cruzi. T. cruzi for infection were harvested from previously-infected Vero cells, washed, pelleted and resuspended at 5×10^6/mL. 50 uL of parasites were added to each well containing Vero cells. Compounds were prepared from 5 mM stock concentrations in DMSO to final concentrations in wells ranging from 5 uM to 5 nM. Wells were provided for negative controls, lacking compounds. Plates were placed into a 37° C. incubator for 20 min, then a “Day 0” reading was taken on a Synergy H4 plate reader to record initial fluorescence levels, at 544 (excitation) and 612 nm (emission). 96-well plates were placed in Tupperware containers with wet paper towels and incubated at 37° C. incubator for 72 h. After 72 h plates were reread (Day 3 reading) and data analyzed using Excel and/or Graphpad software. Day 0 fluorescence was subtracted from Day 3 to remove input parasite fluorescence. Growth curves are generated and 50% and 90% inhibitory concentrations are determined by nonlinear regression analysis.

| Structure (SMILES) | IC50 |
| --- | --- |
| Cc1c(C(=O)N[C@H](C(=O)OCC2CCCC2)C(C)C)ccc2c1B(O)OC2 [Example 6-115, Cyclopentylmethyl (1-hydroxy-7-methyl-1,3-dihydrobenzo[c][1,2]oxaborole-6-carbonyl)-L-valinate] | ≤ 20 nM |
| Cc1c(C(=O)N[C@H](C(=O)OCc2ccc(S(N)(=O)=O)cc2)C(C)C)ccc2c1B(O)OC2 [Example 6-108, 4-Sulfamoylbenzyl (1-hydroxy-7-methyl-1,3-dihydrobenzo[c][1,2]oxaborole-6-carbonyl)-L-valinate] | ≥ 1000 nM |
| Cc1c(C(=O)N[C@H](C(=O)OCc2ccc(C(=O)N(C)CCN(C)C)cc2)C(C)C)ccc2c1B(O)OC2 [Example 6-106, 4-((2-(Dimethylamino)ethyl)(methyl)carbamoyl)benzyl (1-hydroxy-7-methyl-1,3-dihydrobenzo[c][1,2]oxaborole-6-carbonyl)-L-valinate] | ≥ 1000 nM |
| Cc1c(C(=O)N[C@H](C(=O)OCC2(C)CCOC2)C(C)C)ccc2c1B(O)OC2 (stereo partly drawn) [Example 6-233, (3-methyltetrahydrofuran-3-yl)methyl (1-hydroxy-7-methyl-1,3-dihydrobenzo[c][1,2]oxaborole-6-carbonyl)-L-valinate] | ≤ 20 nM |
| Cc1c(C(=O)N[C@H](C(=O)OCC2COCCO2)C(C)C)ccc2c1B(O)OC2 (stereo partly drawn) [Example 6-227, (1,4-dioxan-2-yl)methyl (1-hydroxy-7-methyl-1,3-dihydrobenzo[c][1,2]oxaborole-6-carbonyl)-L-valinate] | ≤ 20 nM |
| Cc1c(C(=O)N[C@H](C(=O)OCc2ccc([S+]([O-])C(C)C)cc2)C(C)C)ccc2c1B(O)OC2 (stereo partly drawn) [Example 6-089, 4-(Isopropylsulfinyl)benzyl (1-hydroxy-7-methyl-1,3-dihydrobenzo[c][1,2]oxaborole-6-carbonyl)-L-valinate] | 21 to 999 nM |
| Cc1c(C(=O)N[C@H](C(=O)OCc2ccc(C(=O)N3CCN(C)CC3)cc2)C(C)C)ccc2c1B(O)OC2 [Example 6-105, 4-(4-Methylpiperazine-1-carbonyl)benzyl (1-hydroxy-7-methyl-1,3-dihydrobenzo[c][1,2]oxaborole-6-carbonyl)-L-valinate] | 21 to 999 nM |
| Cc1c(C(=O)N[C@H](C(=O)OC[C@H](O)CO)C(C)C)ccc2c1B(O)OC2 [Example 6-147, (R)-2,3-dihydroxypropyl (1-hydroxy-7-methyl-1,3-dihydrobenzo[c][1,2]oxaborole-6-carbonyl)-L-valinate] | ≥ 1000 nM |
| Cc1c(C(=O)N[C@H](C(=O)OCCN2CCC3(CC2)COC3)C(C)C)ccc2c1B(O)OC2 [Example 6-217, 2-(2-oxa-7-azaspiro[3.5]nonan-7-yl)ethyl (1-hydroxy-7-methyl-1,3-dihydrobenzo[c][1,2]oxaborole-6-carbonyl)-L-valinate] | ≥ 1000 nM |
| Cc1c(C(=O)N[C@H](C(=O)OCC(C)C)C(C)C)ccc2c1B(O)OC2 [Example 6-116, Isobutyl (1-hydroxy-7-methyl-1,3-dihydrobenzo[c][1,2]oxaborole-6-carbonyl)-L-valinate] | ≤ 20 nM |
| COc1c(C(=O)N[C@H](C(=O)OCc2ccc(F)cc2)C(C)C)ccc2c1B(O)OC2 [Example 6-195, 4-fluorobenzyl (1-hydroxy-7-methoxy-1,3-dihydrobenzo[c][1,2]oxaborole-6-carbonyl)-L-valinate] | 21 to 999 nM |
| Cc1c(C(=O)N[C@H](C(=O)OCCN2CCN(C)CC2)C(C)C)ccc2c1B(O)OC2 [Example 6-096, 2-(4-Methylpiperazin-1-yl)ethyl (1-hydroxy-7-methyl-1,3-dihydrobenzo[c][1,2]oxaborole-6-carbonyl)-L-valinate] | ≥ 1000 nM |
